Results taken from patent US10072026B2, “Crystalline form of 3-((1R,3s,5S)-3-((7-((5-methyl-1H-pyrazol-3-yl)amino)-1,6-naphthyridin-5-yl)amino)-8-azabicyclo[3.2.1]octan-8-yl)propanenitrile” (priority 2015, dated 2018).
Like-named read-outs stand apart in the source and are kept apart here.

How the values were obtained:
[1] = system: IL-4 induced STAT6 phosphorylation in THP-1 human monocytic cells; test: Cellular JAK potency assay, THP-1
JAK1 = JAK1 (Homo sapiens (Human), UniProt P23458); test: LanthaScreen JAK biochemical assay (JAK1)
Chain of JAK1 (P23458 whole entry): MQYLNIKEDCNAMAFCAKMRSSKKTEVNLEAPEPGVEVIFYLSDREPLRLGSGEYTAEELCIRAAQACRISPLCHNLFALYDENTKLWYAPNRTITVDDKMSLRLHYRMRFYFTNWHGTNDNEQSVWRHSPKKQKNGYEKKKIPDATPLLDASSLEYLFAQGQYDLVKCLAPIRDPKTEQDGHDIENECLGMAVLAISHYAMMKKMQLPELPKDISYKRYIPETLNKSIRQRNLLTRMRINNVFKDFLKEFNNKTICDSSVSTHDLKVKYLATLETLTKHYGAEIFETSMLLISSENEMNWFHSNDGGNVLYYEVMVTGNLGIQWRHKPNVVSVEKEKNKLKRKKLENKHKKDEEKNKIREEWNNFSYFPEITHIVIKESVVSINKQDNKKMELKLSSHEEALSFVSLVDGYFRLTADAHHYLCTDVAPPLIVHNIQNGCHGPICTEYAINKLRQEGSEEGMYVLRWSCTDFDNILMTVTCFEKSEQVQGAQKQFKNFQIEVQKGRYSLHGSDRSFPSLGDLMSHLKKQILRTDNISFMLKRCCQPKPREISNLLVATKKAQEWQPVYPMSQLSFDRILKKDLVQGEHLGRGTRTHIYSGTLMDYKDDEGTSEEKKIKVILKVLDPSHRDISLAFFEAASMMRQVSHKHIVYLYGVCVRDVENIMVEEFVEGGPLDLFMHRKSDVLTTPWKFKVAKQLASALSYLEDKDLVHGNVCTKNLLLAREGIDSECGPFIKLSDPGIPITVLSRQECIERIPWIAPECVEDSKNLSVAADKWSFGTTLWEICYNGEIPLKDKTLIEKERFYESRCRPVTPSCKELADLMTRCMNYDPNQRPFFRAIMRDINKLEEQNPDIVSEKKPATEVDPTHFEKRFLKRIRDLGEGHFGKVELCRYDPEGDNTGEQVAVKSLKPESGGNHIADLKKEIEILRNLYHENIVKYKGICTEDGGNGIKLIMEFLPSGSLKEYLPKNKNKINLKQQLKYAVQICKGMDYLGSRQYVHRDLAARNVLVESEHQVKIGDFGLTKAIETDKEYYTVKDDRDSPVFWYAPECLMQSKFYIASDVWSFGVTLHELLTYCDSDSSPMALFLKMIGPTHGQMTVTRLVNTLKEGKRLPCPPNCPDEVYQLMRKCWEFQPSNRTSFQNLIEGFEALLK

[2] = THP-1 cells, IL-4 induced STAT6 phosphorylation
[3] = IL-4 induced STAT6 phosphorylation, THP-1 cells
[4] = Homo sapiens, THP-1, read-out: THP-1 IL4 pIC50 (converted)
[5] = read-out: JAK 1 (pKi) (converted)

| Compound | JAK 1 (pKi) (JAK1) | THP-1 IL4 pIC50 [1, 3] | other results |
| --- | --- | --- | --- |
| COc1cnc2cc(Nc3cc(C)[nH]n3)nc(N[C@@H]3C[C@H]4CCC[C@@H](C3)N4CCCF)c2c1 [Example 6-26] | B (B represents a pKi value between 9 and 10 (Ki between 1 nM and 0.1 nM)) |  | THP-1 IL4 pIC50 [1, 2]: B (B represents a pEC50 value between 6.7 and 7.5 (EC50 between 200 nM and 32 nM)) |
| COC(=O)CCCN1[C@@H]2CCC[C@H]1C[C@H](Nc1nc(Nc3cc(C)[nH]n3)cc3ncccc13)C2 [Example 1-34] | B (B represents a pKi value between 9 and 10 (Ki between 1 nM and 0.1 nM)) | C (C represents a pEC50 value<6.7 (EC50>200 nM)) |  |
| Cc1cc(Nc2cc3nc(CN4CCOCC4)ccc3c(N[C@@H]3C[C@H]4CC[C@@H](C3)N4CC(C)C)n2)n[nH]1 [Example 5-19] | B (B represents a pKi value between 9 and 10 (Ki between 1 nM and 0.1 nM)) | B (B represents a pEC50 value between 6.7 and 7.5 (EC50 between 200 nM and 32 nM)) |  |
| COCC1CCCN1S(=O)(=O)N1[C@@H]2CC[C@H]1C[C@H](Nc1nc(Nc3cc(C)[nH]n3)cc3ncccc13)C2 (stereo partly shown) [Example 4-12] |  |  | IC50 [1, 4]: 31.6 to 200 nM; Ki (JAK1): 0.1 to 1 nM |
| Cc1cc(Nc2cc3ncccc3c(N[C@@H]3C[C@H]4CC[C@@H](C3)N4CC(C)C)n2)n[nH]1 [Example 1-13] | B (B represents a pKi value between 9 and 10 (Ki between 1 nM and 0.1 nM)) | A (A represents a pEC50 value≥7.5 (EC50≤32 nM)) |  |
| Cc1cc(Nc2nc(N[C@@H]3C[C@H]4CCC[C@@H](C3)N4C(=O)CN(C)C)c3cccnc3c2F)n[nH]1 [Example 8-15] | B (B represents a pKi value between 9 and 10 (Ki between 1 nM and 0.1 nM)) |  | THP-1 IL4 pIC50 [1, 2]: C (C represents a pEC50 value<6.7 (EC50>200 nM)) |
| COc1ccc2c(N[C@@H]3C[C@H]4CC[C@@H](C3)N4CCCF)nc(Nc3cc(C)[nH]n3)cc2n1 [Example 5-5] | B (B represents a pKi value between 9 and 10 (Ki between 1 nM and 0.1 nM)) | B (B represents a pEC50 value between 6.7 and 7.5 (EC50 between 200 nM and 32 nM)) |  |
| Cc1cc(Nc2cc3ncccc3c(N[C@@H]3C[C@H]4CC[C@@H](C3)N4S(=O)(=O)C3(C)CC3)n2)n[nH]1 [Example 4-8] |  |  | IC50 [1, 4]: < 31.6 nM; Ki (JAK1; [5]): […] |
| COCCOC(=O)N1[C@@H]2CC[C@H]1C[C@H](Nc1nc(Nc3cc(C)[nH]n3)cc3ncccc13)C2 [Example 3-5] | B (B represents a pKi value between 9 and 10 (Ki between 1 nM and 0.1 nM)) | B (B represents a pEC50 value between 6.7 and 7.5 (EC50 between 200 nM and 32 nM)) |  |
| Cc1cc(Nc2cc3ncccc3c(N[C@@H]3C[C@H]4CC[C@@H](C3)N4CCCF)n2)n[nH]1 [Example 1-9] | B (B represents a pKi value between 9 and 10 (Ki between 1 nM and 0.1 nM)) | C (C represents a pEC50 value<6.7 (EC50>200 nM)) |  |
| Cc1cc(Nc2cc3ncccc3c(N[C@@H]3C[C@H]4CC[C@@H](C3)N4C(=O)OCC(C)C)n2)n[nH]1 [Example 3-3] | B (B represents a pKi value between 9 and 10 (Ki between 1 nM and 0.1 nM)) | A (A represents a pEC50 value≥7.5 (EC50≤32 nM)) |  |
| COCCCN1[C@@H]2CCC[C@H]1C[C@H](Nc1nc(Nc3cc(C)[nH]n3)cc3ncccc13)C2 [Example 1-46] | B (B represents a pKi value between 9 and 10 (Ki between 1 nM and 0.1 nM)) | B (B represents a pEC50 value between 6.7 and 7.5 (EC50 between 200 nM and 32 nM)) |  |
| Cc1cc(Nc2cc3ncccc3c(N[C@@H]3C[C@H]4CC[C@@H](C3)N4S(=O)(=O)C3CN(CCC#N)C3)n2)n[nH]1 [Example 4-11] |  |  | IC50 [1, 4]: > 200 nM; Ki (JAK1; [5]): 0.1 to 1 nM |
| COC(=O)c1cnc2cc(Nc3cc(C)[nH]n3)nc(N[C@@H]3C[C@H]4CC[C@@H](C3)N4C(=O)CN(C)C)c2c1 [Example 6-39] | B (B represents a pKi value between 9 and 10 (Ki between 1 nM and 0.1 nM)) |  | THP-1 IL4 pIC50 [1, 2]: C (C represents a pEC50 value<6.7 (EC50>200 nM)) |
